Values joined by “and” are separate entries in the source; they are usually repeats but may differ in a detail not shown here. Equal values may be shown once.
Test: In vitro release
Type: physicochemical
Settings: for Cumulative Dex (%): Fig 4b pellet 1x1 mm; for 23G x 6 mm - Cumulative Dex Release, % / 30G x 6 mm - Cumulative Dex Release, % / 23G x 6 mm - Cumulative Dex Release / 30G x 6 mm - Cumulative Dex Release: Fig 4e; for 23G x 6 mm - Cumulative Dex Release, % / 30G x 6 mm - Cumulative Dex Release, %: AVG; for 23G x 6 mm - Cumulative Dex Release / 30G x 6 mm - Cumulative Dex Release: single samples and AVG
Protocol: Pellets for release studies. Crystalline drug dimers were weighed on a stainless steel coupon. In the case of blends with a second drug, the dimer and drug were mixed at the desired mass ratio with mortar and pestle prior to weighing. Samples were transferred to a heat press (Carver Laboratory Press). A PTFE mold containing an array of 1 mm diameter holes of 1 mm depth was placed on top of the melt, and pressure was applied for 2 min. Molded pellets were cooled to room temperature and punched out of the mold, yielding a pellet of 1 mm height × 1 mm diameter.
Release studies were carried out using different media, including PBS (pH 7.4, Gibco), 100% FBS (Sigma, F1051), 1% FBS in PBS pH 7.4, and 3.6% BSA (Sigma, A7906) in PBS (pH 7.4, Gibco). […] Samples were incubated in release medium at 37 °C under constant agitation on an orbital shaker at 115 rpm (VWR). At designated timepoints, sampling was performed by complete removal of medium and replenishment with fresh buffer. Sampling timepoints included 24 h and then every 3–4 days thereafter. For PBS release conditions, samples were analyzed directly. For samples with protein (100% FBS, 1% FBS, 3.6% BSA), protein was precipitated by addition of acetonitrile. Samples were vortexed and centrifuged to separate extracted drug from precipitated protein. The supernatant was then analyzed for drug concentration by HPLC.

Structure (SMILES): C[C@@H]1C[C@H]2[C@@H]3CCC4=CC(=O)C=C[C@]4(C)[C@@]3(F)[C@@H](O)C[C@]2(C)[C@@]1(O)C(=O)COC(=O)OCCOCCOCCOC(=O)OCC(=O)[C@@]1(O)[C@H](C)C[C@H]2[C@@H]3CCC4=CC(=O)C=C[C@]4(C)[C@@]3(F)[C@@H](O)C[C@@]21C [Dex-TEG-Dex]
- Cumulative Dex (%) (1% FBS, Day 1): 0.0326% and 0.0366% and 0.0447%
- Cumulative Dex (%) (1% FBS, Day 3): 0.11% and 0.12% and 0.13%
- Cumulative Dex (%) (1% FBS, Day 7): 0.35% and 0.44% and 0.38%
- Cumulative Dex (%) (1% FBS, Day 10): 0.52% and 0.59% and 0.51%
- Cumulative Dex (%) (1% FBS, Day 14): 0.81% and 0.96% and 0.85%
- Cumulative Dex (%) (1% FBS, Day 17): 0.94% and 1.07% and 1.04%
- Cumulative Dex (%) (1% FBS, Day 21): 1.22% and 1.44% and 1.42%
- Cumulative Dex (%) (1% FBS, Day 24): 1.37% and 1.56% and 1.61%
- Cumulative Dex (%) (1% FBS, Day 28): 1.58% and 1.84% and 1.93%
- Cumulative Dex (%) (1% FBS, Day 31): 1.78% and 2.05% and 2.12%
- Cumulative Dex (%) (1% FBS, Day 35): 1.95% and 2.46% and 2.48%
- Cumulative Dex (%) (100% FBS, Day 1): 1.59% and 1.88% and 1.25%
- Cumulative Dex (%) (100% FBS, Day 3): 6.12% and 9.16% and 4.64%
- Cumulative Dex (%) (100% FBS, Day 7): 11.07% and 13.41% and 9.59%
- Cumulative Dex (%) (100% FBS, Day 10): 15.60% and 21.36% and 19.29%
- Cumulative Dex (%) (100% FBS, Day 14): 21.12% and 26.30% and 23.66%
- Cumulative Dex (%) (100% FBS, Day 17): 25.65% and 33.52% and 29.96%
- Cumulative Dex (%) (100% FBS, Day 21): 29.80% and 39.06% and 33.88%
- Cumulative Dex (%) (100% FBS, Day 24): 34.99% and 43.22% and 37.26%
- Cumulative Dex (%) (100% FBS, Day 28): 41.40% and 49.76% and 42.62%
- Cumulative Dex (%) (100% FBS, Day 31): 49.48% and 56.79% and 48.41%
- Cumulative Dex (%) (100% FBS, Day 35): 52.66% and 62.41% and 52.08%
- Cumulative Dex (%) (PBS, Day 1): 0.0268% and 0.0111% and 0.0155%
- Cumulative Dex (%) (PBS, Day 7): 0.06% and 0.0341% and 0.04%
- Cumulative Dex (%) (PBS, Day 10): 0.075% and 0.04% and 0.05%
- Cumulative Dex (%) (PBS, Day 14): 0.09% and 0.05% and 0.06%
- Cumulative Dex (%) (PBS, Day 17): 0.10% and 0.0566% and 0.07%
- Cumulative Dex (%) (PBS, Day 21): 0.12% and 0.07% and 0.09%
- Cumulative Dex (%) (PBS, Day 24): 0.13% and 0.08% and 0.10%
- Cumulative Dex (%) (PBS, Day 28): 0.15% and 0.09% and 0.11%
- Cumulative Dex (%) (PBS, Day 31): 0.16% and 0.11% and 0.12%
- Cumulative Dex (%) (PBS, Day 35): 0.17% and 0.12% and 0.13%
- 23G x 6 mm - Cumulative Dex Release, % (Day 3): 1.00%
- 30G x 6 mm - Cumulative Dex Release, % (Day 3): 4.68%
- 23G x 6 mm - Cumulative Dex Release (Day 3): 3729.09 ng and 2929.83 ng and 3290.92 ng and 3423.46 ng and 3390.39 ng and 4152.03 ng
- 30G x 6 mm - Cumulative Dex Release (Day 3): 3437.65 ng and 3035.80 ng and 2955.67 ng and 2307.19 ng and 3016.47 ng
- 23G x 6 mm - Cumulative Dex Release (Day 3, mean): 3485.95 ng
- 30G x 6 mm - Cumulative Dex Release (Day 3, mean): 2950.56 ng
- 23G x 6 mm - Cumulative Dex Release, % (Day 8): 1.83%
- 30G x 6 mm - Cumulative Dex Release, % (Day 8): 10.16%
- 23G x 6 mm - Cumulative Dex Release (Day 8): 7366.47 ng and 5713.70 ng and 5752.02 ng and 6286.74 ng and 6353.56 ng and 6670.93 ng
- 30G x 6 mm - Cumulative Dex Release (Day 8): 7053.30 ng and 6157.33 ng and 6454.99 ng and 5803.26 ng and 6543.46 ng
- 23G x 6 mm - Cumulative Dex Release (Day 8, mean): 6357.24 ng
- 30G x 6 mm - Cumulative Dex Release (Day 8, mean): 6402.47 ng
- 23G x 6 mm - Cumulative Dex Release, % (Day 10): 2.30%
- 30G x 6 mm - Cumulative Dex Release, % (Day 10): 11.65%
- 23G x 6 mm - Cumulative Dex Release (Day 10): 9158.12 ng and 7456.22 ng and 6722.99 ng and 8377.04 ng and 7947.05 ng and 8287.22 ng
- 30G x 6 mm - Cumulative Dex Release (Day 10): 7909.95 ng and 7094.85 ng and 7391.21 ng and 6693.85 ng and 7620.80 ng
- 23G x 6 mm - Cumulative Dex Release (Day 10, mean): 7991.44 ng
- 30G x 6 mm - Cumulative Dex Release (Day 10, mean): 7342.13 ng
- 23G x 6 mm - Cumulative Dex Release, % (Day 14): 3.12%
- 30G x 6 mm - Cumulative Dex Release, % (Day 14): 14.82%
- 23G x 6 mm - Cumulative Dex Release (Day 14): 11851.57 ng and 10258.34 ng and 8632.68 ng and 12053.80 ng and 11294.23 ng and 11036.15 ng
- 30G x 6 mm - Cumulative Dex Release (Day 14): 9732.58 ng and 9343.08 ng and 9295.87 ng and 8576.11 ng and 9731.17 ng
- 23G x 6 mm - Cumulative Dex Release (Day 14, mean): 10854.46 ng
- 30G x 6 mm - Cumulative Dex Release (Day 14, mean): 9335.76 ng
- 23G x 6 mm - Cumulative Dex Release, % (Day 17): 3.78%
- 30G x 6 mm - Cumulative Dex Release, % (Day 17): 17.41%
- 23G x 6 mm - Cumulative Dex Release (Day 17): 14384.84 ng and 12536.91 ng and 10299.95 ng and 14655.10 ng and 13823.20 ng and 13226.26 ng
- 30G x 6 mm - Cumulative Dex Release (Day 17): 11350.14 ng and 11189.72 ng and 10651.54 ng and 10149.26 ng and 11503.70 ng
- 23G x 6 mm - Cumulative Dex Release (Day 17, mean): 13154.38 ng
- 30G x 6 mm - Cumulative Dex Release (Day 17, mean): 10968.87 ng
- 23G x 6 mm - Cumulative Dex Release, % (Day 21): 4.61%
- 30G x 6 mm - Cumulative Dex Release, % (Day 21): 21.03%
- 23G x 6 mm - Cumulative Dex Release (Day 21): 17889.27 ng and 15640.68 ng and 12427.10 ng and 17536.82 ng and 17079.10 ng and 15733.26 ng
- 30G x 6 mm - Cumulative Dex Release (Day 21): 13690.06 ng and 13583.23 ng and 12649.08 ng and 12021.08 ng and 14305.00 ng
- 23G x 6 mm - Cumulative Dex Release (Day 21, mean): 16051.04 ng
- 30G x 6 mm - Cumulative Dex Release (Day 21, mean): 13249.69 ng
- 23G x 6 mm - Cumulative Dex Release, % (Day 24): 5.14%
- 30G x 6 mm - Cumulative Dex Release, % (Day 24): 23.23%
- 23G x 6 mm - Cumulative Dex Release (Day 24): 20230.97 ng and 17190.29 ng and 13784.68 ng and 19329.36 ng and 19335.19 ng and 17491.78 ng
- 30G x 6 mm - Cumulative Dex Release (Day 24): 15132.41 ng and 14970.59 ng and 13925.27 ng and 13373.61 ng and 15759.23 ng
- 23G x 6 mm - Cumulative Dex Release (Day 24, mean): 17893.71 ng

From article PMC8129133, “Polymer-free corticosteroid dimer implants for controlled and sustained drug delivery” (Nature Communications, 2021)
